PubChem BioAssay (NCI)
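Briefly, cells in 96-well plates were exposed to five compound concentrations for 48 h, and endpoints were estimated by linear interpolation. TGI: total growth inhibition.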

Tests used:
Assay in all cases: inhibition of tumour cell growth, NCI panel, 48 h
HL-60(TB) leukemia = tested on: HL-60(TB) leukemia
HCT-15 colon = tested on: HCT-15 colon
EKVX NSCLC = tested on: EKVX NSCLC
RXF 393 renal = tested on: RXF 393 renal
OVCAR-8 ovarian = tested on: OVCAR-8 ovarian
NCI-H23 lung = tested on: NCI-H23 lung
MOLT-4 leukemia = tested on: MOLT-4 leukemia
DU-145 prostate = tested on: DU-145 prostate
HCC-2998 colon = tested on: HCC-2998 colon
COLO 205 colon = tested on: COLO 205 colon

SMILES: CCOC1SC(SC)=NN1C(=O)C(OC(C)=O)C(OC(C)=O)C(OC(C)=O)C(OC(C)=O)C(=O)N1N=C(SC)SC1OCC (centres undefined)
- TGI (HL-60(TB) leukemia): > 100 µM
- TGI (HCT-15 colon): > 100 µM
- TGI (EKVX NSCLC): > 100 µM
- TGI (RXF 393 renal): > 100 µM
- TGI (OVCAR-8 ovarian): > 100 µM
- TGI (NCI-H23 lung): > 100 µM
- TGI (MOLT-4 leukemia): > 100 µM
- TGI (DU-145 prostate): > 100 µM
- TGI (HCC-2998 colon): > 100 µM
- TGI (COLO 205 colon): > 100 µM

SMILES: CC1(C)OC(=S)N(c2ccccc2)C12C=Cc1cc3ccccc3cc1O2 (centres undefined)
- TGI (HL-60(TB) leukemia): > 100 µM
- TGI (HCT-15 colon): > 100 µM
- TGI (EKVX NSCLC): > 100 µM
- TGI (RXF 393 renal): > 100 µM
- TGI (OVCAR-8 ovarian): > 100 µM
- TGI (NCI-H23 lung): > 100 µM
- TGI (MOLT-4 leukemia): > 100 µM
- TGI (DU-145 prostate): > 100 µM
- TGI (HCC-2998 colon): > 100 µM
- TGI (COLO 205 colon): > 100 µM

SMILES: CCOP(C)(=O)C(Nc1ccc(F)cc1)c1ccc(F)cc1 (centres undefined)
- TGI (HL-60(TB) leukemia): > 100 µM
- TGI (HCT-15 colon): > 100 µM
- TGI (EKVX NSCLC): > 100 µM
- TGI (RXF 393 renal): > 100 µM
- TGI (OVCAR-8 ovarian): > 100 µM
- TGI (NCI-H23 lung): > 100 µM
- TGI (MOLT-4 leukemia): > 100 µM
- TGI (DU-145 prostate): > 100 µM
- TGI (HCC-2998 colon): > 100 µM
- TGI (COLO 205 colon): > 100 µM

SMILES: CC(=O)OCc1cn(S(=O)(=O)c2ccc(C)cc2)cn1
- TGI (HL-60(TB) leukemia): > 100 µM
- TGI (HCT-15 colon): > 100 µM
- TGI (EKVX NSCLC): > 100 µM
- TGI (RXF 393 renal): > 100 µM
- TGI (OVCAR-8 ovarian): > 100 µM
- TGI (NCI-H23 lung): > 100 µM
- TGI (MOLT-4 leukemia): > 100 µM
- TGI (DU-145 prostate): > 100 µM
- TGI (HCC-2998 colon): > 100 µM
- TGI (COLO 205 colon): > 100 µM

SMILES: Cn1cnc([N+](=O)[O-])c1Sc1nc(N)nc2c1ncn2Cc1ccccc1
- TGI (HL-60(TB) leukemia): 47.7 µM
- TGI (HCT-15 colon): 45.8 µM
- TGI (EKVX NSCLC): 42.3 µM
- TGI (RXF 393 renal): 43.7 µM
- TGI (OVCAR-8 ovarian): 72.2 µM
- TGI (NCI-H23 lung): 36.9 µM
- TGI (DU-145 prostate): > 100 µM
- TGI (HCC-2998 colon): 29.4 µM
- TGI (COLO 205 colon): 32.1 µM

SMILES: CC1Cc2cc(O)ccc2C2[C@@H]1C1CC[C@H](O)[C@@]1(C)C[C@@H]2O[N+](=O)[O-] (some centres undefined)
- TGI (HL-60(TB) leukemia): 8.3 µM
- TGI (HCT-15 colon): > 78.7 µM
- TGI (EKVX NSCLC): > 100 µM
- TGI (RXF 393 renal): 29.3 µM
- TGI (OVCAR-8 ovarian): 74 µM
- TGI (NCI-H23 lung): 67.8 µM
- TGI (MOLT-4 leukemia): > 100 µM
- TGI (DU-145 prostate): 76.3 µM
- TGI (HCC-2998 colon): 22 µM
- TGI (COLO 205 colon): 50.6 µM

SMILES: O=C1C[C@H]2[C@H](c3ccc(Br)cc3)[C@H]3C(=O)c4ccccc4NC(=O)[C@@H]3[C@@]2(O)c2ccccc2N1
- TGI (HL-60(TB) leukemia): 15.3 µM
- TGI (HCT-15 colon): > 100 µM
- TGI (EKVX NSCLC): > 100 µM
- TGI (RXF 393 renal): 26 µM
- TGI (OVCAR-8 ovarian): > 100 µM
- TGI (NCI-H23 lung): 38.9 µM
- TGI (MOLT-4 leukemia): 25 µM
- TGI (DU-145 prostate): > 100 µM
- TGI (HCC-2998 colon): 30.3 µM
- TGI (COLO 205 colon): 40.2 µM

SMILES: COc1cc(OC)nc(Nc2c(C#N)c3nc4ccccc4n3c3ccccc23)n1
- TGI (HL-60(TB) leukemia): > 100 µM
- TGI (HCT-15 colon): > 100 µM
- TGI (EKVX NSCLC): > 100 µM
- TGI (RXF 393 renal): 99.2 µM
- TGI (OVCAR-8 ovarian): > 100 µM
- TGI (NCI-H23 lung): > 100 µM
- TGI (MOLT-4 leukemia): > 100 µM
- TGI (DU-145 prostate): > 100 µM
- TGI (HCC-2998 colon): > 100 µM
- TGI (COLO 205 colon): > 100 µM
